ChEMBL document CHEMBL4351003, “Selective Toll-like receptor 7 agonists with novel chromeno[3,4-d]imidazol-4(1H)-one and 2-(trifluoromethyl)quinoline/ quinazoline-4-amine scaffolds” (Eur J Med Chem, 2019)
Activity calls are given as the source filed them. The rule behind the calls is not given here.

Columns and labels:
[1] = Cytotoxicity against human HEK293 cells transfected with human TLR7/8 assessed as reduction in cell viability incubated for 24 hrs by MTS assay; format: cell-based; settings: read-out: MNCC
[2] = molecular target: T1, Toll-like receptor 7 (Homo sapiens, UniProt Q9NYK1); assay: Agonist activity at human TLR7 in HEK293 cells cotransfected with SEAP reporter gene assessed as activity of SEAP incubated for 24 hrs by quanti-blue staining based SEAP reporter gene assay; format: cell-based
T1 sequence (Q9NYK1 whole entry): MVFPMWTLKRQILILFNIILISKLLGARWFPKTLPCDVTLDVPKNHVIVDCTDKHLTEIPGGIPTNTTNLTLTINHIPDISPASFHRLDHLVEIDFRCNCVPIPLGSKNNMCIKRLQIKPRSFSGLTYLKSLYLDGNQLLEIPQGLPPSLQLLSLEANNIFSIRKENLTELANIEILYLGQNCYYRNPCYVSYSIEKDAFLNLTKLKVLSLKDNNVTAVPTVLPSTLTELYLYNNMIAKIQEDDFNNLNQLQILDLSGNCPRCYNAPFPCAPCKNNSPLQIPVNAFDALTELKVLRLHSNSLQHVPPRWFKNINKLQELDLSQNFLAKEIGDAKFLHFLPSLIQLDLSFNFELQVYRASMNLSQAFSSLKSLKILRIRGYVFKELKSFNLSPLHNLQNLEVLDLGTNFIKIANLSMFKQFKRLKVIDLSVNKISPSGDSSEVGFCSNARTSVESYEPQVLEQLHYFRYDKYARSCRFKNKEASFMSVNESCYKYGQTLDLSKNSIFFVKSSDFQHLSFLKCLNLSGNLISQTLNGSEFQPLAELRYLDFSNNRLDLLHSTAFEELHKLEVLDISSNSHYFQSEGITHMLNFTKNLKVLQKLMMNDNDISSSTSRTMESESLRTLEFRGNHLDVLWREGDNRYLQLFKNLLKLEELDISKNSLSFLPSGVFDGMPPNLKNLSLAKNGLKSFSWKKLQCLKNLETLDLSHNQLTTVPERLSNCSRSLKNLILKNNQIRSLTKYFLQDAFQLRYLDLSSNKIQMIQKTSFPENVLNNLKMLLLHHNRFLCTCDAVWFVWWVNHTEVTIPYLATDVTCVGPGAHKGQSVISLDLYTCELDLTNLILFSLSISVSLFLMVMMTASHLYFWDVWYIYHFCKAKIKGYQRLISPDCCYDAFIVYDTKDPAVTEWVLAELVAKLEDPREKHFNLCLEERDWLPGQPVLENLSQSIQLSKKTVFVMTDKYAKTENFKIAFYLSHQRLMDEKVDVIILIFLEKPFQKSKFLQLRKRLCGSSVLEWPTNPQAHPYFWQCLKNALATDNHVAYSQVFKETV

[3] = molecular target: T2, Toll-like receptor 7 (Homo sapiens) (UniProt Q9NYK1); assay: Antagonist activity at human TLR7 in HEK293 cells cotransfected with SEAP reporter gene assessed as activity of SEAP preincubated for 2 hrs followed by imiquimod addition further incubated for 24 hrs by quanti-blue staining based SEAP reporter gene assay; format: cell-based
T2 sequence (whole entry): T1 sequence (Q9NYK1 whole entry)

[4] = molecular target: T3, Toll-like receptor 8 (Homo sapiens) (UniProt Q9NR97); assay: Agonist activity at human TLR8 in HEK293 cells cotransfected with SEAP reporter gene assessed as activity of SEAP incubated for 24 hrs by quanti-blue staining based SEAP reporter gene assay; format: cell-based
T3 sequence (whole entry): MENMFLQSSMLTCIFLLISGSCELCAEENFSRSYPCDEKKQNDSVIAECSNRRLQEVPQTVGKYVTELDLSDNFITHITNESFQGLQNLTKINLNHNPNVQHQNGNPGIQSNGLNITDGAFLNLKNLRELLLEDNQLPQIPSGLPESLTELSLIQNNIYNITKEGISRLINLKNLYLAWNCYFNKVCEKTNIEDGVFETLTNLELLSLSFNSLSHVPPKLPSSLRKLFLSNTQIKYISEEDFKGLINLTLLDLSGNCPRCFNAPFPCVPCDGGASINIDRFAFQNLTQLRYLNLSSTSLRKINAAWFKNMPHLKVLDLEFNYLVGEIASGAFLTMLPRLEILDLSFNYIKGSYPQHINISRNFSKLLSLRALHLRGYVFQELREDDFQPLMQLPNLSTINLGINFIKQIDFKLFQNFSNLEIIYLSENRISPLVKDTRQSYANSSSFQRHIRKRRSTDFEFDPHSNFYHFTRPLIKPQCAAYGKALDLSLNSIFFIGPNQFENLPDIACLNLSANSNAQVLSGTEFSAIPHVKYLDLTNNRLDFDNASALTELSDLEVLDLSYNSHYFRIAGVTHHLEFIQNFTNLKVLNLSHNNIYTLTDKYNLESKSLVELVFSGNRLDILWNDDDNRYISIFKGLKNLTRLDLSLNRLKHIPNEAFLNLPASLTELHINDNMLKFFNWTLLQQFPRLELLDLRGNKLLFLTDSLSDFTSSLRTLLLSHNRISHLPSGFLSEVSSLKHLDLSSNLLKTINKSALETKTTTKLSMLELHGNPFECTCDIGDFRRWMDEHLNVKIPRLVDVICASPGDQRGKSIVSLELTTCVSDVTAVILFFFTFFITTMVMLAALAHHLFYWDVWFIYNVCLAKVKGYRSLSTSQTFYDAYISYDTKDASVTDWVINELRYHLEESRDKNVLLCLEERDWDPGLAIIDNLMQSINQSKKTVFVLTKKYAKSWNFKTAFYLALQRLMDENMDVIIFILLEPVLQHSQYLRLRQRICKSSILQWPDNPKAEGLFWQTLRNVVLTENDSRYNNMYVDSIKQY

[5] = system: PBMC; assay: Induction of TNFalpha production in human PBMC at 10 ug/ml incubated for 24 hrs by flow cytometry analysis; format: functional, cell-based
[6] = system: PBMC; assay: Induction of IL-6 production in human PBMC at 10 ug/ml incubated for 24 hrs by flow cytometry analysis; format: functional, cell-based
[7] = system: PBMC; assay: Induction of IL-8 production in human PBMC at 10 ug/ml incubated for 24 hrs by flow cytometry analysis; format: functional, cell-based
[8] = system: PBMC; assay: Induction of IL-12p70 production in human PBMC at 10 ug/ml incubated for 24 hrs by flow cytometry analysis; format: functional, cell-based

Row | Compound | MNTC at 24 h [1] [µM] | EC50 ([2]; hek293) | Activity [3] | EC50 ([2]; read-out: EC50) [µM] | Activity [4] | Activity [5] | Activity [6] | Activity [7] | Activity [8]
1 | COc1ccc2oc(=O)c3ncn(CC(C)C)c3c2c1 | 62.5 | Not Active | – | – | – | – | – | – | –
2 | O=C(O)CNc1nc(C(F)(F)F)nc2ccccc12 | 31.3 | Not Active | – | – | – | – | – | – | –
3 | CC(C)CNc1nc(C(F)(F)F)nc2ccccc12 | 7.8 to 250 | – | inactive | 4.4 | inactive | – | – | – | –
4 | CCCNc1nc(C(F)(F)F)nc2ccccc12 | 62.5 | – | inactive | 44 | inactive | – | – | – | –
5 | CC(C)Cn1cnc2c(=O)oc3ccc(F)cc3c21 | ≥ 250 | Not Active | – | – | – | – | – | – | –
6 | OCCNc1nc(C(F)(F)F)nc2ccccc12 | 125 | – | inactive | – | – | – | – | – | –
7 | CC(C)Cn1cnc2c(=O)oc3ccc(O)cc3c21 | 62.5 | – | inactive | 1.8 | inactive | inactive | inactive | inactive | inactive
8 | FC(F)(F)c1nc(NCC2CC2)c2ccccc2n1 | 31.3 | – | inactive | 15 | inactive | – | – | – | –
9 | CC(C)Cn1cnc2c(N)nc3ccccc3c21 [IMIQUIMOD] | – | – | – | 6.2 to 8.2 | – | inactive | – | Active | inactive
10 | FC(F)(F)c1nc(NC2CCN(C3CC3)CC2)c2ccccc2n1 | 125 | – | inactive | 66.6 | inactive | – | – | – | –
11 | FC(F)(F)c1nc(N2CCOCC2)c2ccccc2n1 | 125 | Not Active | – | – | – | – | – | – | –
12 | FC(F)(F)c1nc(NC2CCCC2)c2ccccc2n1 | 62.5 | – | inactive | 10.9 | inactive | – | – | – | –
13 | CC1CCCN(c2cc(C(F)(F)F)nc3ccccc23)C1 (stereo not given) | 31.3 | Not Active | – | – | – | – | – | – | –
14 | FC(F)(F)c1nc(NCCc2cnc[nH]2)c2ccccc2n1 | 31.3 | Not Active | – | – | – | – | – | – | –
15 | CC(C)Cn1cnc2c(=O)oc3cc(O)ccc3c21 | ≥ 250 | – | inactive | 114 | inactive | – | – | – | –
16 | C=CCn1cnc2c(=O)oc3ccccc3c21 | ≥ 250 | Not Active | – | – | – | – | – | – | –
17 | CC(C)Cn1cnc2c(=O)oc3ccccc3c21 | – | – | Active | – | inactive | – | – | – | –
18 | CC(C)Nc1nc(C(F)(F)F)nc2ccccc12 | 62.5 | – | inactive | 57.4 | inactive | – | – | – | –
19 | CN1CCN(c2nc(C(F)(F)F)nc3ccccc23)CC1 | 7.8 to 250 | Not Active | – | – | – | – | – | – | –
20 | CCN(CC)c1ccc2c(c1)oc(=O)c1ncn(CC(C)C)c12 | 62.5 | – | inactive | 29.9 | inactive | – | – | – | –

Row | Compound | MNTC at 24 h [1] [µM] | EC50 ([2]; hek293) | Activity [3] | EC50 ([2]; read-out: EC50) [µM] | Activity [4] | Activity [5] | Activity [6] | Activity [7] | Activity [8]
21 | FC(F)(F)c1nc(NC2CC2)c2ccccc2n1 | 125 | – | inactive | 16.8 | inactive | inactive | Active | Active | inactive
22 | FC(F)(F)c1nc(N2CCCC2)c2ccccc2n1 | 31.3 | – | inactive | 15.4 | inactive | – | – | – | –
23 | Nc1nc(C(F)(F)F)nc2ccccc12 | 62.5 | Not Active | – | – | – | – | – | – | –
24 | COCCn1cnc2c(=O)oc3ccccc3c21 | ≥ 250 | Not Active | – | – | – | – | – | – | –
25 | COc1ccc2c(c1)oc(=O)c1ncn(CC(C)C)c12 | ≥ 250 | – | inactive | 279 | inactive | – | – | – | –
26 | Oc1nc(C(F)(F)F)nc2ccccc12 | 62.5 | Not Active | – | – | – | – | – | – | –
27 | FC(F)(F)c1nc(Cl)c2ccccc2n1 | 31.3 | Not Active | – | – | – | – | – | – | –
28 | CC(C)Cn1cnc2c(=O)oc3ccc([N+](=O)[O-])cc3c21 | 62.5 | Not Active | – | – | – | – | – | – | –
29 | CC1CCCN(c2nc(C(F)(F)F)nc3ccccc23)C1 (stereo not given) | 62.5 | – | inactive | 4 | inactive | – | – | – | –
30 | CC(C)n1cnc2c(=O)oc3ccccc3c21 | ≥ 250 | Not Active | – | – | – | – | – | – | –
31 | COCCCn1cnc2c(=O)oc3ccccc3c21 | ≥ 250 | Not Active | – | – | – | – | – | – | –
32 | Cc1ccc2oc(=O)c3ncn(CC(C)C)c3c2c1 | ≥ 250 | – | inactive | 535 | inactive | – | – | – | –
33 | CCCCn1cnc2c(=O)oc3ccccc3c21 | ≥ 250 | – | inactive | 107 | inactive | – | – | – | –
34 | Nc1ccc(CNc2nc(C(F)(F)F)nc3ccccc23)cc1 | 15.6 | Not Active | – | – | – | – | – | – | –
35 | FC(F)(F)c1nc(NC2CCCCC2)c2ccccc2n1 | 31.3 | – | inactive | 8.3 | inactive | inactive | Active | Active | inactive
36 | CCn1cnc2c(=O)oc3ccc(F)cc3c21 | ≥ 250 | Not Active | – | – | – | – | – | – | –
37 | CCCn1cnc2c(=O)oc3ccccc3c21 | ≥ 250 | Not Active | – | – | – | – | – | – | –
38 | FC(F)(F)c1nc(NCCN2CCCCC2)c2ccccc2n1 | 62.5 | Not Active | – | – | – | – | – | – | –
39 | CC(C)CNc1cc(C(F)(F)F)nc2ccccc12 | 62.5 | – | inactive | 6.3 | inactive | inactive | Active | Active | inactive
